From US20100256104A1, “NOVEL AMIDE COMPOUNDS” (ASTRAZENECA R&D, priority 2009, published 2010)

The molecules below were run against T1, recombinant human GR (Homo sapiens, UniProt P04150) (assay: Human Glucocorticoid Receptor (GR) Assay, fluorescence polarization competition with GS Red tracer). Settings: 2 hours at room temperature, 100% control 10 μM Dexamethasone, XLfit model 205, read-out: Inhibition of GR binding, IC50.
T1 construct: purchased Panvera/Invitrogen P2812 (kit P2893)
T1 sequence (P04150 1-777): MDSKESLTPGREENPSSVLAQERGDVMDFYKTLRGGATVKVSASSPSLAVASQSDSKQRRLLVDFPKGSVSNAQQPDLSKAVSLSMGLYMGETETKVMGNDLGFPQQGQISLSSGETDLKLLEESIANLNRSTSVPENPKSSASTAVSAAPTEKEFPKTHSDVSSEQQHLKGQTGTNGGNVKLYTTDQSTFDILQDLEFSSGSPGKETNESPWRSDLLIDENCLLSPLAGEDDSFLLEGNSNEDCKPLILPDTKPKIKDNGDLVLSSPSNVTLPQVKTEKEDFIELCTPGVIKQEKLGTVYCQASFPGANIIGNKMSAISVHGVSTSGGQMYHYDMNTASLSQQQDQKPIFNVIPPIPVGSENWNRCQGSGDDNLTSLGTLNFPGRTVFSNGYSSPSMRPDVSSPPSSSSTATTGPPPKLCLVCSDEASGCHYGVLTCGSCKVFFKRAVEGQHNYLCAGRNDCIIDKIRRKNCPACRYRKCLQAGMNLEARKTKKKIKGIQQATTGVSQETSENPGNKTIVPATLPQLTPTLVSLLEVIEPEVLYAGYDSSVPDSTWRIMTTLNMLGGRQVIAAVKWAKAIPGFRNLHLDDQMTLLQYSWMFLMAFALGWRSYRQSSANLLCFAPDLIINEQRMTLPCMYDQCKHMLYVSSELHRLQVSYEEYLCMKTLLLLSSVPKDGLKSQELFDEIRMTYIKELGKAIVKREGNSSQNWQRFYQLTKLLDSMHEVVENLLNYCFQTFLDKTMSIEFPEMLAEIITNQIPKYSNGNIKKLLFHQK
Experimental: Human Glucocorticoid Receptor (GR) Assay The assay is based on a commercial kit from Panvera/Invitrogen (Part number P2893). The assay technology is fluorescence polarization. The kit utilises recombinant human GR (Panvera, Part number P2812), a Fluoromone™ labelled tracer (GS Red, Panvera, Part number P2894) and a Stabilizing Peptide 10X (Panvera, Part number P2815). The GR and Stabilizing Peptide reagents are stored at −70° C. while the GS Red is stored at −20° C. Also included in the kit are 1M DTT (Panvera, Part number P2325, stored at −20° C.) and GR Screening buffer 10X (Panvera, Part number P2814, stored at −70° C. initially but once thawed stored at room temperature). Avoid repeated freeze/thaws for all reagents. The GR Screening buffer 10X comprises 100 mM potassium phosphate, 200 mM sodium molybdate, 1 mM EDTA and 20% DMSO. Test compounds (1 μL) and controls (1 μL) in 100% DMSO were added to black polystyrene 384-well plates (Greiner low volume black flat-bottom, part number 784076). 0% control was 100% DMSO and 100% control was 10 μM Dexamethasone. Background solution (8 μL; assay buffer 10X, Stabilizing Peptide, DTT and ice cold MQ water) was added to the background wells. GS Red solution (7 μL; assay buffer 10X, Stabilizing Peptide, DTT, GS Red and ice cold water) was added to all wells except background wells. GR solution (7 μL; assay buffer 10X, Stabilizing Peptide, DTT, GR and ice cold water) was added to all wells. The plate was sealed and incubated in a dark at room temperature for 2 hours. The plate was read in an Analyst plate reader (LJL Biosystems/Molecular Devices Corporation) or other similar plate reader capable of recording fluorescence polarization (excitation wavelength 530 nm, emission wavelength 590 nm and a dichroic mirror at 561 nm).

Compared with `CCC(=O)O[C@]1(C(=O)SCF)CC[C@H]2[C@@H]3CCC4=Cc5c(cnn5-c5cccc(C(=O)NCCSC)c5)C[C@]4(C)[C@H]3[C@@H](O)C[C@@]21C` [Example 7, (1R,3aS,3bS,10aR,10bS,11S,12aS)-1-{[(Fluoromethyl)sulfanyl]carbonyl}-11-hydroxy-10a,12a-dimethyl-7-(3-{[2-(methylsulfanyl)ethyl]carbamoyl}phenyl)-1,2,3,3a,3b,4,5,7,10,10a,10b,11,12,12a-tetradecahydrocyclopenta[5,6]naphtho[1,2-f]indazol-1-yl propanoate], `CCC(=O)O[C@]1(C(=O)SCC#N)CC[C@H]2[C@@H]3CCC4=Cc5c(cnn5-c5cccc(C(=O)NCC(N)=O)c5)C[C@]4(C)[C@H]3[C@@H](O)C[C@@]21C` [Example 11, (1R,3aS,3bS,10aR,10bS,11S,12aS)-7-{3-[(2-Amino-2-oxoethyl)carbamoyl]phenyl}-1-{[(cyanomethyl)sulfanyl]carbonyl}-11-hydroxy-10a,12a-dimethyl-1,2,3,3a,3b,4,5,7,10,10a,10b,11,12,12a-tetradecahydrocyclopenta[5,6]naphtho[1,2-f]indazol-1-yl propanoate] is 2.6-fold higher in IC50: 1.4 nM for the first, 3.7 nM for the second. The first is the more potent here.

`CCC(=O)O[C@]1(C(=O)SCC#N)CC[C@H]2[C@@H]3CCC4=Cc5c(cnn5-c5cccc(C(=O)N6CCC[C@@H]6C(N)=O)c5)C[C@]4(C)[C@@]3(F)[C@@H](O)C[C@@]21C` [Example 60, (1R,3aS,3bS,10aS, 10bR,11S,12aS)-7-(3-{[(2R)-2-carbamoyl-pyrrolidin-1-yl]carbonyl}phenyl)-1-{[(cyanomethyl)sulfanyl]carbonyl}-10b-fluoro-11-hydroxy-10a,12a-dimethyl-1,2,3,3a, 3b,4,5,7,10,- 10a,10b,11,12,12a-tetradecahydro-cyclopenta[5,6]naphtho [1,2-f]indazol-1-yl propanoate] and `CCC(=O)O[C@]1(C(=O)SC)CC[C@H]2[C@@H]3CCC4=Cc5c(cnn5-c5cccc(C(=O)N6CCC[C@@H]6C(N)=O)c5)C[C@]4(C)[C@@]3(F)[C@@H](O)C[C@@]21C` [Example 59, (1R,3aS,3bS,10aS, 10bR,11S,12aS)-7-(3-{[(2R)-2-carbamoyl-pyrrolidin-1-yl]carbonyl}phenyl)-10b-fluoro-11-hydroxy-10a,12a-dimethyl-1-[(methylsulfanyl)carbonyl]-1,2,3,3a,3b,4,5,7,10, 10a,10b,11,12,12a-tetradecahydrocyclo-penta[5,6]naphtho [1,2-f]indazol-1-yl propanoate] are the same in IC50: 3.3 nM for the first, 3.3 nM for the second.

Going from `CCC(=O)O[C@]1(C(=O)SCF)[C@H](C)C[C@H]2[C@@H]3CCC4=Cc5c(cnn5-c5cccc(C(=O)NCC(N)=O)c5)C[C@]4(C)[C@@]3(F)[C@@H](O)C[C@@]21C` [Example 41, (1R,2R,3aS,3bS, 10aS,10bR,11S,12aS)-7-{3-[(2-amino-2-oxoethyl)carbamoyl]phenyl}-10b-fluoro-1-{[(fluoromethyl)sulfanyl]carbonyl}-11-hydroxy-2,10a,12a-trimethyl-1,2,3,3a,3b,4,5,7,10, 10a,10b,11,12,12a-tetradecahydrocyclo-penta[5,6]naphtho [1,2-f]indazol-1-yl propanoate] to `COCC(=O)O[C@]1(C(=O)SCF)[C@H](C)C[C@H]2[C@@H]3CCC4=Cc5c(cnn5-c5cccc(C(=O)NCC(N)=O)c5)C[C@]4(C)[C@@]3(F)[C@@H](O)C[C@@]21C` [Example 45, (1R,2R,3aS,3bS, 10aS,10bR,11S,12aS)-7-{3-[(2-amino-2-oxoethyl)carbamoyl]phenyl}-10b-fluoro-1-{[(fluoromethyl)sulfanyl]carbonyl}-11-hydroxy-2,10a,12a-trimethyl-1,2,3,3a,3b,4,5,7,10, 10a,10b,11,12,12a-tetradecahydrocyclo-penta[5,6]naphtho [1,2-f]indazol-1-yl methoxyacetate], the IC50 rises from 1.2 nM to 5.3 nM (4.4-fold).

First: COCC(=O)O[C@]1(C(=O)SCC#N)CC[C@H]2[C@@H]3CCC4=Cc5c(cnn5-c5cccc(C(=O)NCc6cccnc6)c5)C[C@]4(C)[C@H]3[C@@H](O)C[C@@]21C [Example 52, (1R,3aS,3bS,10aR, 10bS,11S,12aS)-1-{[(cyanomethyl)sulfanyl]carbonyl}-11-hydroxy-10a,12a-dimethyl-7-{3-[(pyridin-3-ylmethyl)carbamoyl]phenyl}-1,2,3,3a,3b,4,5,7,10, 10a,10b,11,12,12a-tetradecahydrocyclo-penta[5,6]naphtho [1,2-f]indazol-1-yl methoxyacetate]
Second: C[C@]12Cc3cnn(-c4cccc(C(=O)N5CCC[C@@H]5C(N)=O)c4)c3C=C1CC[C@@H]1[C@@H]2[C@@H](O)C[C@@]2(C)[C@H]1CC[C@]2(OC(=O)c1cocn1)C(=O)SCF [Example 50, (1R,3aS,3bS,10aR, 10bS,11S,12aS)-7-(3-{[(2R)-2-carbamoyl-pyrrolidin-1-yl]carbonyl}phenyl)-1-{[(fluoromethyl)sulfanyl]carbonyl}-11-hydroxy-10a,12a-dimethyl-1,2,3,3a,3b,4,5,7,10, 10a,10b,11,12,12a-tetradecahydrocyclo-penta[5,6]naphtho [1,2-f]indazol-1-yl 1,3-oxazole-4-carboxylate]
The IC50 of the first is 5.5-fold lower: 1.5 nM for the first, 8.2 nM for the second. The first is the more potent here.

Going from `C[C@]12Cc3cnn(-c4cccc(C(=O)N5CCC[C@@H]5C(N)=O)c4)c3C=C1CC[C@H]1[C@@H]3CC[C@](OC(=O)C4CC4)(C(=O)SCC#N)[C@@]3(C)C[C@H](O)[C@@]12F` [Example 54, (1R,3aS,3bS,10aS, 10bR,11S,12aS)-7-(3-{[(2R)-2-carbamoyl-pyrrolidin-1-yl]carbonyl}phenyl)-1-{[(cyanomethyl)sulfanyl]carbonyl}-10b-fluoro-11-hydroxy-10a,12a-dimethyl-1,2,3,3a, 3b,4,5,7,10,10a,- 10b,11,12,12a-tetradeca-hydrocyclo-penta[5,6]naphtho [1,2-f]indazol-1-yl cyclopropanecarboxylate] to `CCC(=O)O[C@]1(C(=O)SCF)CC[C@H]2[C@@H]3CCC4=Cc5c(cnn5-c5cccc(C(=O)N[C@@H](C)C(N)=O)c5)C[C@]4(C)[C@@]3(F)[C@@H](O)C[C@@]21C` [Example 35, (1R,3aS,3bS,10aS, 10bR,11S,12aS)-7-(3-{[(1S)-2-amino-1-methyl-2-oxoethyl]carbamoyl}phenyl)-10b-fluoro-1-{[(fluoromethyl)sulfanyl]carbonyl}-11-hydroxy-10a,12a-dimethyl-1,2,3,3a,3b,4,5,7,10,10a, 10b,11,12,12a-tetradecahydrocyclo-penta[5,6]naphtho [1,2-f]indazol-1-yl propanoate], the IC50 rises from 4.2 nM to 6.5 nM (1.5-fold). The first is the more potent here.

Compared with `CCC(=O)O[C@]1(C(=O)SCF)CC[C@H]2[C@@H]3CCC4=Cc5c(cnn5-c5cccc(C(=O)N[C@H](C)C(N)=O)c5)C[C@]4(C)[C@@]3(F)[C@@H](O)C[C@@]21C` [Example 32, (1R,3aS,3bS,10aS, 10bR,11S,12aS)-7-(3-{[(1R)-2-amino-1-methyl-2-oxoethyl]carbamoyl}phenyl)-10b-fluoro-1-{[(fluoromethyl)-sulfanyl]carbonyl}-11-hydroxy-10a,12a-dimethyl-1,2,3,3a,3b,4,5,7,10, 10a,10b,11,12,12a-tetradecahydrocyclo-penta[5,6]naphtho [1,2-f]indazol-1-yl propanoate], `C[C@H]1C[C@@H]2[C@H]([C@@H](O)C[C@@]3(C)[C@H]2CC[C@]3(OC(=O)C2CC2)C(=O)SCF)[C@@]2(C)Cc3cnn(-c4cccc(C(=O)NCC(N)=O)c4)c3C=C12` [Example 31, (1R,3aS,3bS,5S, 10aR,10bS,11S,12aS)-7-{3-[(2-amino-2-oxoethyl)carbamoyl]phenyl}-1-{(fluoromethyl)sulfanyl] carbonyl}-11-hydroxy-5,10a,12a-trimethyl-1,2,3,3a,3b,4,5,7,10, 10a,10b,11,12,12a-tetradecahydrocyclo-penta[5,6]naphtho [1,2-f]indazol-1-yl cyclopropanecarboxylate] is 2.1-fold lower in IC50: 2.5 nM for the first, 1.2 nM for the second. The second is the more potent here.
